Results from BigSolDB 2.1.

c1ccc2c(c1)sc1ccccc12
Settings | solubility (mole fraction)
in 2-(2-butoxyethoxy)ethanol, 282.75 K | 0.063
in 2-(2-butoxyethoxy)ethanol, 285.85 K | 0.0695
in 2-(2-butoxyethoxy)ethanol, 291.65 K | 0.0873
in 2-(2-butoxyethoxy)ethanol, 298.95 K | 0.105
in 2-(2-butoxyethoxy)ethanol, 304.35 K | 0.123
in 2-(2-butoxyethoxy)ethanol, 309.85 K | 0.144
in 2-(2-butoxyethoxy)ethanol, 316.05 K | 0.167
in 2-(2-butoxyethoxy)ethanol, 320.95 K | 0.192
in 2-(2-butoxyethoxy)ethanol, 324.35 K | 0.217
in 2-(2-butoxyethoxy)ethanol, 328.95 K | 0.245
in 2-(2-butoxyethoxy)ethanol, 333.15 K | 0.28
in DMF, 289.45 K | 0.113
in DMF, 294.25 K | 0.131
in DMF, 298.65 K | 0.147
in DMF, 302.65 K | 0.165
in DMF, 306.55 K | 0.184
in DMF, 310.15 K | 0.206
in DMF, 314.35 K | 0.231
in DMF, 318.35 K | 0.257
in DMF, 322.35 K | 0.285
in DMF, 325.55 K | 0.313
in DMF, 329.25 K | 0.344
in DMSO, 292.95 K | 0.0567
in DMSO, 296.45 K | 0.0668
in DMSO, 301.25 K | 0.0791
in DMSO, 306.15 K | 0.0925
in DMSO, 310.15 K | 0.108
in DMSO, 314.85 K | 0.127
in DMSO, 318.05 K | 0.15
in DMSO, 322.95 K | 0.177
in DMSO, 325.45 K | 0.201
in DMSO, 330.15 K | 0.234
in DMSO, 333.25 K | 0.264
in acetone, 300.15 K | 0.0769
in acetone, 301.15 K | 0.0792
in acetone, 303.15 K | 0.0884
in acetone, 308.15 K | 0.107
in acetone, 311.25 K | 0.12
in acetone, 314.65 K | 0.136
in acetone, 317.95 K | 0.156
in acetone, 321.65 K | 0.179
in acetone, 326.25 K | 0.217
in acetone, 330.95 K | 0.261
in acetone, 336.25 K | 0.319
in acetone, 341.15 K | 0.372
in acetonitrile, 289.35 K | 0.0103
in acetonitrile, 290.45 K | 0.0107
in acetonitrile, 293.25 K | 0.0121
in acetonitrile, 297.35 K | 0.0143
in acetonitrile, 302.15 K | 0.0175
in acetonitrile, 304.55 K | 0.0199
in acetonitrile, 309.25 K | 0.0244
in decalin, 294.15 K | 0.0408
in decalin, 296.15 K | 0.042
in decalin, 298.15 K | 0.0445
in decalin, 302.15 K | 0.049
in decalin, 304.15 K | 0.0516
in decalin, 308.15 K | 0.0571
in decalin, 317.15 K | 0.0706
in decalin, 325.15 K | 0.0891
in decalin, 331.15 K | 0.101
in decalin, 337.15 K | 0.107
in diethylene glycol, 287.85 K | 0.00027
in diethylene glycol, 299.95 K | 0.00062
in diethylene glycol, 309.95 K | 0.00093
in diethylene glycol, 314.15 K | 0.00119
in diethylene glycol, 317.65 K | 0.00163
in diethylene glycol, 320.95 K | 0.0023
in diethylene glycol, 324.95 K | 0.00328
in diethylene glycol, 326.85 K | 0.00443
in diethylene glycol, 328.15 K | 0.00619
in diethylene glycol, 330.15 K | 0.00951
in diethylene glycol, 332.35 K | 0.0143
in diethylene glycol, 334.15 K | 0.0203
in ethanol, 294.55 K | 0.0062
in ethanol, 300.25 K | 0.0074
in ethanol, 303.85 K | 0.0082
in ethanol, 306.45 K | 0.0092
in ethanol, 310.25 K | 0.0106
in ethanol, 313.95 K | 0.0121
in ethanol, 318.95 K | 0.0141
in ethanol, 322.55 K | 0.0164
in ethanol, 327.35 K | 0.0197
in ethanol, 331.15 K | 0.0239
in n-octane, 292.05 K | 0.0232
in n-octane, 294.15 K | 0.0244
in n-octane, 297.15 K | 0.0277
in n-octane, 300.05 K | 0.0317
in n-octane, 304.15 K | 0.0373
in n-octane, 308.25 K | 0.0438
in n-octane, 314.15 K | 0.0521
in n-octane, 318.15 K | 0.062
in n-octane, 325.15 K | 0.0767
in n-octane, 337.15 K | 0.0995
in n-propanol, 288.05 K | 0.0065
in n-propanol, 295.95 K | 0.0083
in n-propanol, 300.15 K | 0.0099
in n-propanol, 303.85 K | 0.0118
in n-propanol, 307.85 K | 0.0143
in n-propanol, 314.65 K | 0.0183
in n-propanol, 320.65 K | 0.0232
in n-propanol, 324.05 K | 0.0292
in n-propanol, 328.95 K | 0.0363
in n-propanol, 332.25 K | 0.043
in n-propanol, 336.05 K | 0.0486
in sulfolane, 297.65 K | 0.0541
in sulfolane, 299.45 K | 0.0563
in sulfolane, 301.75 K | 0.0609
in sulfolane, 303.45 K | 0.0712
in sulfolane, 309.15 K | 0.0923
in sulfolane, 313.35 K | 0.109
in sulfolane, 317.05 K | 0.125
in sulfolane, 321.05 K | 0.144
in sulfolane, 324.85 K | 0.163
in sulfolane, 327.75 K | 0.185
in sulfolane, 331.75 K | 0.214
in sulfolane, 334.75 K | 0.242
in sulfolane, 338.25 K | 0.271
in sulfolane, 340.45 K | 0.294
